In paper PMC5404542, “In Vitro and In Vivo Antifungal Profile of a Novel and Long-Acting Inhaled Azole, PC945, on Aspergillus fumigatus Infection” (Antimicrobial Agents and Chemotherapy, 2017):
Values after ≈ are worked out from the molar mass of the structure shown. Values joined by “and” are separate entries in the source; they are usually repeats but may differ in a detail not shown here. Equal entries are not always repeated. Where two headings read alike, the source gives them in different places. Marks after values point to notes of the source that are not given here.

What was measured:
[1] = test system: Cryptococcus gattii (clinical isolate); assay: MIC, EUCAST; type: cell-based; conditions: 1 strain
[2] = test system: A. fumigatus hyphae (NCPF2010); assay: Persistence of action on A. fumigatus hyphae (resazurin-based microtiter assay); conditions: for IC50: Aspergillus fumigatus, NCPF2010, 16 h, read-out: Hyphae IC50, No washout; for Hyphae Fold change: washout versus no washout
Procedure: (§1) The persistence of action of test agents was calculated for A. fumigatus hyphae (NCPF2010). […] The plates were incubated for exactly 20 min at 35°C and 5% CO2. After the incubation time had elapsed, all wells on the designated washout plate were aspirated, and growth medium (100 μl/well) was added across the plate. […] Resazurin (0.04%; diluted in growth medium) was added to all wells of both nonwashout and washout plates (5 μl/well) to give a final concentration of 0.002% resazurin. The plates were incubated at 35°C and 5% CO2 for 16 h. […] The percent inhibition for each well was calculated, and the IC50 was calculated from the concentration-response curve generated for each test compound by use of a four-parameter logistic equation (Dotmatics, Bishops Stortford, United Kingdom).

[3] = test system: A. fumigatus (ATCC 13073 [strain NIH 5233]); assay: In vivo antifungal activity, intranasal treatment of temporarily neutropenic immunocompromised mice; conditions: for incidence of rolling behavior: 14 μg/mouse intranasally once daily
Procedure: The mice were reared on a standard diet and tap water ad libitum. […] Conidia were aseptically dislodged from the agar plates and suspended in sterile distilled water with 0.05% Tween 80 and 0.1% agar. […] On day 0, 30 μl of the conidial suspension was administered intranasally.
Test agents suspended in physiological saline were administered daily intranasally (35 μl) on days 1 to 6, and the survival of animals was recorded for 7 days. […] Deaths and the body weights of surviving animals were monitored daily. A body weight loss of >20% compared to an animal's weight on day 1 and mouse death were both defined as “dropout” events. Animals that lost >20% of their initial body weight were sacrificed. […] Bronchoalveolar lavage fluid (BALF) was collected on day 7 postinfection or on the day that the mouse dropped out of the study. The Aspergillus GM concentration in BALF was determined by use of Platelia GM-EIA kits (Bio-Rad Laboratories). The value was provided as the “cutoff index” (COI), which was calculated by the following formula: COI = OD in sample/OD in cutoff control (provided by the kit).

[4] = test system: Penicillium chrysogenum (ATCC 9480); assay: MIC, CLSI; type: cell-based; conditions: ATCC9480, 1 strain
[5] = test system: Aspergillus flavus (ATCC 204304); assay: MIC, CLSI; type: cell-based; conditions: ATCC204304, 1 strain, CLSI, read-out: MIC
[6] = test system: Rhizopus oryzae (ATCC 11145); assay: MIC, CLSI; type: cell-based
[7] = test system: Penicillium citrinum (ATCC 9849); assay: MIC, CLSI; type: cell-based; conditions: ATCC9849, 1 strain
[8] = test system: A. fumigatus hyphae (NCPF2010)
Procedure: as §1

[9] = test system: Mucor circinelloides (ATCC 8542); assay: MIC, CLSI; type: cell-based; conditions: ATCC8542, 1 strain
[10] = test system: BEAS2B cells infected with A. fumigatus; assay: Persistence of action on bronchial epithelial cells (galactomannan in supernatant); type: cell-based, Aspergillus fumigatus; conditions: for IC50: Aspergillus fumigatus, BEAS-2B
Procedure: The persistence of action of test agents was evaluated on immortalized bronchial epithelial cells (BEAS2B cells). […] Test and reference articles or undiluted DMSO (as vehicle) (0.5 μl/well) was added to the appropriate wells of the washout plate to give a final concentration of 0.5% DMSO. The plate was incubated for exactly 1 h at 37°C and 5% CO2. After the incubation time had elapsed, all wells on the washout plate were aspirated, and growth medium (100 μl/well) was added across the plate. After 24 h of incubation at 37°C, test and reference articles or undiluted DMSO (as vehicle) (0.5 μl/well) was added to the appropriate wells of the nonwashout plate to give a final concentration of 0.5% DMSO. The plate was incubated for exactly 1 h at 37°C and 5% CO2, after which A. fumigatus conidia were added across both plates to a final concentration of 1 × 10^3/well.

[11] = test system: Chaetomium globosum (ATCC 44699); assay: MIC, CLSI; type: cell-based; conditions: ATCC44699, 1 strain
[12] = test system: Aspergillus carbonarius (ATCC 8740); assay: MIC, CLSI; type: cell-based; conditions: ATCC8740, 1 strain, CLSI, read-out: MIC
[13] = test system: 96 clinically isolated A. fumigatus strains; assay: MIC against 96 clinically isolated strains (EUCAST, visual)
Procedure: (§2) Conidia were added across the plate to a final concentration of 1 × 10^5 ml^−1. […] Determination of antifungal activity against 50 A. fumigatus clinical isolates from St. Louis Hospital (Paris, France) was performed with 96-well plates, using the modified EUCAST method in the presence of 0.5% BSA as described above. Antifungal susceptibility testing of 46 A. fumigatus isolates (obtained from the NW England Mycology Reference Centre) was performed by Evotec UK Ltd. (Manchester, United Kingdom) according to EUCAST guidelines.

AfCYP51B = target: T1, AfCYP51B (Aspergillus fumigatus, UniProt E9QY26); assay: A. fumigatus CYP51 binding assay (ligand titration, type II difference spectra); conditions: for Kd: 4 μM purified AfCYP51B
T1 construct: made in house
Procedure: A. fumigatus CYP51 binding properties were determined as described by Warrilow et al. ([35]). Test agents were titrated against 4 μM recombinant A. fumigatus CYP51A or CYP51B protein, and binding saturation curves were constructed from the change in the absorbance between the spectral peak and the trough. A rearrangement of the Morrison equation was used to determine the dissociation constant (Kd) values when ligand binding was tight ([36]).

[14] = test system: Aspergillus niger (ATCC 1015); assay: MIC, EUCAST; type: cell-based; conditions: ATCC1015, 1 strain, EUCAST, read-out: MIC
A. fumigatus (NCPF2010) = assay: A. fumigatus cell-based ergosterol assay; design: species or system Aspergillus fumigatus; conditions: for IC50: Aspergillus fumigatus, NCPF2010, 24 h, normalized by crystal violet, read-out: IC50, inhibition of ergosterol production
Procedure: After incubation for 24 h at 35°C, medium was removed from all wells and replaced with reaction buffer (Amplex red cholesterol assay kit; Thermo Fisher) and Amplex red solution. Plates were incubated for 30 min at 37°C, protected from light, after which fluorescence was quantified using a spectrophotometer. Medium was removed from all wells and replaced with crystal violet solution (1% [vol/vol]), and plates were incubated at room temperature on a shaker for 30 min. Plates were washed three times with phosphate-buffered saline (PBS), and sodium dodecyl sulfate solution (0.1% [vol/vol]) was added across the plate to lyse the cells. After incubation at room temperature for 1 h, the absorbance was measured by determining the OD590 by use of a spectrophotometer.

[15] = test system: Candida albicans (20240.047, ATCC 10231); assay: MIC, CLSI; type: cell-based; conditions: ATCC10231, 2 strains, CLSI, mean isolate MIC, read-out: MIC (the MIC given is the MIC50)
[16] = test system: Trichophyton rubrum (ATCC 10218); assay: MIC, CLSI; type: cell-based; conditions: ATCC10218, 1 strain
A. fumigatus ATCC 204305 = assay: MIC with and without BSA supplementation, quality control strain; conditions: Aspergillus fumigatus
Procedure: as §2

[17] = test system: Rhizomucor pusillus (ATCC 16458); assay: MIC, CLSI; type: cell-based; conditions: ATCC16458, 1 strain
[18] = 2.8 μg/mouse intranasally once daily days 1 to 6
[19] = 14 μg/mouse intranasally once daily days 1 to 6
[20] = 70 μg/mouse intranasally once daily days 1 to 6
[21] = Rhizopus arrhizus, ATCC11145, 1 strain, read-out: MIC
[22] = 1 h contact before infection, GM readout after 24 h, read-out: BEAS2B cells IC50, No washout
[23] = 1 h contact, 24-h washout prior to infection, GM readout, read-out: BEAS2B cells IC50, Washout
[24] = 96 clinical isolates, determined visually
[25] = Aspergillus fumigatus, read-out: MIC, Geometric mean
[26] = Aspergillus fumigatus, read-out: MIC, Mode
[27] = 0.56 μg/mouse intranasally once daily days 1 to 6

T1 sequence (E9QY26 whole entry): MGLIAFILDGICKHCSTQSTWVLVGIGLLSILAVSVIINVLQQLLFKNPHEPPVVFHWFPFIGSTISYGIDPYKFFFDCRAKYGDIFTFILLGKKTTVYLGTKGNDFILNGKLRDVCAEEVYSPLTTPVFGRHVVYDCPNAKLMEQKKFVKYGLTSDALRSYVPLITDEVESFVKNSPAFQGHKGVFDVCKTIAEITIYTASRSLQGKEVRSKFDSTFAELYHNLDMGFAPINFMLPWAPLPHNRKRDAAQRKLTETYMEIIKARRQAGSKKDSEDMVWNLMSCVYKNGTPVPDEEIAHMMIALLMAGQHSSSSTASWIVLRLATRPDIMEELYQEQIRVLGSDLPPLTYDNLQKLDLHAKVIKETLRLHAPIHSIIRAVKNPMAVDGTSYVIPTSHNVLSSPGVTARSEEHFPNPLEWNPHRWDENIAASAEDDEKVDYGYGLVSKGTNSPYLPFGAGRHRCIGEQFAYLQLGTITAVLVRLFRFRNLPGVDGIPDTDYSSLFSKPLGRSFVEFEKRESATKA

CC[C@@H]([C@H](C)O)n1ncn(-c2ccc(N3CCN(c4ccc(OC[C@@H]5CO[C@@](Cn6cncn6)(c6ccc(F)cc6F)C5)cc4)CC3)cc2)c1=O [Posaconazole, posaconazole]
MIC [1]: 500 ng/mL (≈ 0.713 µM) | IC50 [2]: 0.45 ng/mL (≈ 0.000642 µM) | Hyphae Fold change [2]: 4.90 fold | Hyphae Fold change ([2]; listed as posaconazole): 4.9 fold | Median days of survival [3, 18]: 5 days | No. of survivors on day 7/total no. of mice [3, 18]: 1/8 | survivors on day 7 (%) [3, 18]: 13% | incidence of rolling behavior [3]: not | Median days of survival [3, 19]: 6 days | No. of survivors on day 7/total no. of mice [3, 19]: 7/16 | survivors on day 7 (%) [3, 19]: 44% | Median days of survival [3, 20]: Undefined | No. of survivors on day 7/total no. of mice [3, 20]: 6/8 | survivors on day 7 (%) [3, 20]: 75% | MIC [4]: 130 ng/mL (≈ 0.186 µM) | MIC [5]: 130 ng/mL (≈ 0.186 µM) | MIC ([6]; 1 strain): >8000 ng/mL | MIC [6, 21]: > 8000 ng/mL | MIC [7]: 500 ng/mL (≈ 0.713 µM) | IC50 [8]: 2.2 ng/mL (≈ 0.00314 µM) | MIC [9]: > 8000 ng/mL | IC50 [10, 22]: 3.1 ng/mL (≈ 0.00442 µM) | IC50 [10, 23]: 46 ng/mL (≈ 0.0656 µM) | BEAS2B cells Fold change ([10]; washout versus no washout): 14.7 fold | MIC [11]: 250 ng/mL (≈ 0.357 µM) | MIC [12]: 63 ng/mL (≈ 0.0899 µM) | MIC, Range [13, 24]: 16 to 2000 ng/mL | MIC50 ([13]; Aspergillus fumigatus): 63 ng/mL (≈ 0.0899 µM) | MIC90 ([13]; Aspergillus fumigatus): 500 ng/mL (≈ 0.713 µM) | MIC ([13]; Aspergillus fumigatus, ATCC204305, read-out: MIC, quality control strain): 250 ng/mL (≈ 0.357 µM) | MIC [13, 25]: 100 ng/mL (≈ 0.143 µM) | MIC [13, 26]: 32 ng/mL (≈ 0.0457 µM) | Kd (AfCYP51B; Kd1, AfCYP51B, PC945: modified two-site allosteric model, posaconazole: single tight-binding Kd): 12 nM | MIC [14]: 200 ng/mL (≈ 0.285 µM) | IC50 (A. fumigatus (NCPF2010)): 0.012 µg/mL and 17 nM | MIC50 [15]: 81 ng/mL (≈ 0.116 µM) | MIC [16]: 31 ng/mL (≈ 0.0442 µM) | MIC (A. fumigatus ATCC 204305; ATCC204305, with BSA): 60 ng/mL (≈ 0.0856 µM) | MIC (A. fumigatus ATCC 204305; ATCC204305, without BSA): 30 ng/mL (≈ 0.0428 µM) | MIC [17]: > 8000 ng/mL

Cc1cc(N2CCN(c3ccc(C(=O)Nc4ccc(F)cc4)cc3)CC2)ccc1OC[C@@H]1CO[C@@](Cn2cncn2)(c2ccc(F)cc2F)C1 [PC945, 4-[4-(4-{[(3R,5R)-5-(2,4-difluorophenyl)-5-(1H-1,2,4-triazol-1-ylmethyl)oxolan-3-yl]methoxy}-3-methylphenyl)piperazin-1-yl]-N-(4-fluorophenyl)benzamide]
MIC [1]: 250 ng/mL (≈ 0.366 µM) | IC50 [2]: 0.1 ng/mL (≈ 0.000146 µM) | fold more potent than posaconazole at inhibiting hyphal growth ([2]; no washout): 4.5 fold | fold more potent than voriconazole at inhibiting hyphal growth ([2]; no washout): 110 fold | Median days of survival [3, 27]: 6 days | No. of survivors on day 7/total no. of mice [3, 27]: 4/8 | survivors on day 7 (%) [3, 27]: 50% | Median days of survival [3, 18]: 6.5 days | No. of survivors on day 7/total no. of mice [3, 18]: 5/8 | survivors on day 7 (%) [3, 18]: 63% | incidence of rolling behavior [3]: substantially inhibited | Median days of survival [3, 19]: Undefined | No. of survivors on day 7/total no. of mice [3, 19]: 10/16 | survivors on day 7 (%) [3, 19]: 63% | MIC [4]: > 8000 ng/mL | MIC [5]: > 8000 ng/mL | MIC ([6]; 1 strain): 2000 ng/mL (≈ 2.93 µM) | MIC [6, 21]: 2000 ng/mL (≈ 2.93 µM) | MIC [7]: > 8000 ng/mL | IC50 [8]: 0.086 ng/mL (≈ 0.000126 µM) | MIC [9]: > 8000 ng/mL | IC50 [10, 22]: 3.7 ng/mL (≈ 0.00542 µM) | IC50 [10, 23]: 43 ng/mL (≈ 0.063 µM) | MIC [11]: > 8000 ng/mL | MIC [12]: 4000 ng/mL (≈ 5.86 µM) | concentration up to which growth was not completely inhibited ([13]; 5 of the 13 posaconazole-resistant isolates, NW Mycology Centre): > 8 µg/mL | fold more potent than voriconazole, based on the geometric mean ([13]; 96 clinical isolates): 2.5 fold | MIC90 [13, 24]: 1000 ng/mL (≈ 1.46 µM) | MIC, Geometric mean [13, 24]: 0.17* μg/ml | MIC50 ([13]; Aspergillus fumigatus): 125 ng/mL (≈ 0.183 µM) | MIC90 ([13]; Aspergillus fumigatus): 1000 ng/mL (≈ 1.46 µM) | MIC [13, 25]: 170 ng/mL (≈ 0.249 µM) | MIC [13, 26]: 125 ng/mL (≈ 0.183 µM) | difference spectra on titration against purified CYP51B (AfCYP51B): type II difference spectra | Kd (AfCYP51B; Kd2, AfCYP51B, modified two-site allosteric model): 320 nM | MIC [14]: > 8000 ng/mL | fold more potent than posaconazole, ergosterol production (A. fumigatus (NCPF2010)): 2.6 fold | fold more potent than voriconazole, ergosterol production (A. fumigatus (NCPF2010)): 14 fold | IC50 (A. fumigatus (NCPF2010)): 0.0047 µg/mL and 6.9 nM | MIC50 [15]: 81 ng/mL (≈ 0.119 µM) | MIC [16]: 31 ng/mL (≈ 0.0454 µM) | MIC (A. fumigatus ATCC 204305; ATCC204305, with BSA): 62.5 ng/mL (≈ 0.0915 µM) | MIC (A. fumigatus ATCC 204305; ATCC204305, without BSA): 250 ng/mL (≈ 0.366 µM) | MIC [17]: > 8000 ng/mL
